Melting point and IC50 data for ten compounds are collected here from patent publication US6906094B2, “1,2,4-tribsubstituted benzenes as inhibitors of 15-lipoxygenase” (Warner-Lambert Company, priority 2000, dated 2005).

Data set [1] deals with T1, rabbit reticulocyte 15-LO (Oryctolagus cuniculus, UniProt P12530).
T1 construct: 15-LO is obtained from phenylhydrazine-treated rabbits and purified according to the method of Rapoport; from tissue; host or cells: reticulocytes of phenylhydrazine-treated rabbits
T1 sequence (P12530 1-663): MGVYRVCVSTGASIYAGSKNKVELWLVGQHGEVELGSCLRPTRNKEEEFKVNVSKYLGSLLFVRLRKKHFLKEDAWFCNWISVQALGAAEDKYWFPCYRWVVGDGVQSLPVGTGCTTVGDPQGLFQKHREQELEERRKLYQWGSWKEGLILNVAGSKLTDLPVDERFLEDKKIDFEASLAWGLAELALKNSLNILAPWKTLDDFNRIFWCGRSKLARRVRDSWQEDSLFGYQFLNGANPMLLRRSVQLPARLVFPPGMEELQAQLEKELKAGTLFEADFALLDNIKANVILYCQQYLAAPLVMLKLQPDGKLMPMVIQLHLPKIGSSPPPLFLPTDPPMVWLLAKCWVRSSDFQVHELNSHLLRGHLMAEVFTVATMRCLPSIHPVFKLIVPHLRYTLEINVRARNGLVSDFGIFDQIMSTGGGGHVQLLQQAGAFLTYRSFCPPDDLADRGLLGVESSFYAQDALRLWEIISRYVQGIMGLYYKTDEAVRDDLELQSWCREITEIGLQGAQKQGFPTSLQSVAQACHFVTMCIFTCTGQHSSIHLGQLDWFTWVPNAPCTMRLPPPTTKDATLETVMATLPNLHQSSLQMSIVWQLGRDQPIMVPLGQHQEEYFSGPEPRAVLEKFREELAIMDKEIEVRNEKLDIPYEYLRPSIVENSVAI
Nature of the data set: Rabbit Reticulocyte 15-LO Assay (H15LO). The following applies: 2 U rabbit reticulocyte 15-LO, 174 μM linoleic acid, 15 minutes at 4° C., 13-HODE quantitated. The format is biochemical. Put shortly:
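Rabbit reticulocyte 15-LO purified from phenylhydrazine-treated rabbits; 2 U enzyme incubated with 174 μM linoleic acid and test compound for 15 min at 4° C in PBS with 0.2% sodium cholate. Reaction stopped with mobile phase and triethyl phosphite; 13-HODE product quantitated by peak area against an authentic 13-HODE standard curve.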

Data set [2] has as its target T2, human 15-LO (Homo sapiens, UniProt P16050).
T2 construct: made in house; host or cells: Sf9 insect cells (baculovirus, Bac-to-Bac)
T2 sequence (P16050 1-662): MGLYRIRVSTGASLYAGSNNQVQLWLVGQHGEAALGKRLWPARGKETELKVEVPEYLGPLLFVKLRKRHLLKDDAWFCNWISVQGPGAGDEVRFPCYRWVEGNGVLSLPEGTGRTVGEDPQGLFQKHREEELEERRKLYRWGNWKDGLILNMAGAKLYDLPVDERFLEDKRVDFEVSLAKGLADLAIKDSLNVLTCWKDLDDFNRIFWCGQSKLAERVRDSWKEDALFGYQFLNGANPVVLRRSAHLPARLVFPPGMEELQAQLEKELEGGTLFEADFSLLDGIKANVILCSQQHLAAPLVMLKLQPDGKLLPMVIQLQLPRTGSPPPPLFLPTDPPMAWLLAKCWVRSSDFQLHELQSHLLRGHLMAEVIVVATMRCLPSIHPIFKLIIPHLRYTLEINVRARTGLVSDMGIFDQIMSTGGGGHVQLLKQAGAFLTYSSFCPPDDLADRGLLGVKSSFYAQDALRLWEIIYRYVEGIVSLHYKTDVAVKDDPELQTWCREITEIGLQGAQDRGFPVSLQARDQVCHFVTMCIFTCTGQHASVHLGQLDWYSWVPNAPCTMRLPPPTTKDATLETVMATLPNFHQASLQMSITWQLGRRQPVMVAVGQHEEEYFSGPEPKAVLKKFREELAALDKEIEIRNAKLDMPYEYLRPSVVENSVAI
Nature of the data set: Human Lysate 15-LO Assay (HUM15LO). Conditions: recombinant human 15-LO, 174 μM linoleic acid, 15 minutes at 4° C., 13-HODE quantitated. The format is biochemical. The essentials: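 Baculovirus-expressed recombinant enzyme incubated with compound and 174 μM linoleic acid in PBS with 0.2% sodium cholate, 15 min at 4° C. 13-HODE product quantitated against an authentic standard curve. Percent inhibition derived relative to a compound-free control reaction.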

Usually melting point stands for the temperature of the solid-liquid transition. One may read the IC50 as the concentration needed to halve the response being measured.

Take `COc1ccc(-c2cc3cc(F)c(F)cc3[nH]2)cc1NS(=O)(=O)NC(=O)OCc1ccccc1` [Example 36, Carbamic Acid, [[[5-(5,6-difluoro-IH-indol-2-yl)-methoxyphenyl]amino]-sulfonyl]-, Phenylmethyl ester]: the melting point is 177 to 180 °C. The same compound yielded an IC50 in data set [1] of 0.012 µM. Moreover, in data set [2], the IC50 was 0.013 µM.

For `COc1ccc(C(=O)Nc2ccc(F)c(F)c2)cc1NS(=O)(=O)NC(=O)OC/C=C/c1ccccc1` [Example 33, Carbamic Acid, [[[5-[[(3,4-difluorophenyl)amino]carbonyl]-2-methoxyphenyl]amino]sulfonyl]-, (2E)-3-phenyl-2-propenyl ester], the melting point fell in the range of 159 to 163 °C. In data set [1], the IC50 worked out at 0.007 µM. In addition, the half-inhibitory concentration (IC50) in data set [2] was determined as 0.013 µM.

Turning to `CCCCCCOC(=O)NS(=O)(=O)Nc1cc(-c2cc3cc(F)c(F)cc3[nH]2)ccc1OC` [Example 51, Carbamic Acid, [[[5-(5,6-difluoro-IH-indo-2yl)-methoxyphenyl]amino]-sulfonyl]-hexyl ester], the melting point is 186 to 188 °C. The IC50 in data set [1] was 0.002 µM. The IC50 in data set [2] is 0.012 µM.

`COc1ccc(-c2cc3cc(F)c(F)cc3[nH]2)cc1NS(=O)(=O)NC(=O)OCCCOCc1ccccc1` [Example 49, Carbamic Acid, [[[5-(5,6-difluoro-IH-indol-2-yl)-2-methoxyphenyl]-amino]sulfonyl]-3-(phenylmethoxy)propyl ester] showed a melting point of 166 to 168 °C. The half-maximal inhibitory concentration (IC50) in data set [1] worked out at 0.005 µM. Moreover, the IC50 in data set [2] was 0.015 µM.

In turn, `COc1ccc(C(=O)Nc2ccc(F)c(F)c2)cc1NS(=O)(=O)NC(=O)OCCCOCc1ccccc1` [Example 50, Carbamic Acid, [[[5-[[(3,4-difluorophenyl)amino]carbonyl]-2-methoxyphenyl]amino]sulfonyl]-, 3-(phenylmethoxy)propyl ester] registered a melting point of 178 to 179 °C. In data set [1], the half-inhibitory concentration (IC50) is 0.018 µM. Also, the half-maximal inhibitory concentration (IC50) in data set [2] worked out at 0.065 µM.

In turn, `COc1ccc(C(=O)Nc2ccc(F)c(F)c2)cc1NS(=O)(=O)NC(=O)OCc1ccccc1` [Example 42, Carbamic Acid, [[[5-[[(3,4-difluorophenyl)amino]carbonyl]-2-methoxyphenyl]amino]sulfonyl]-, Phenylmethyl Ester] returned a melting point of 173 to 176 °C. In addition, the IC50 in data set [1] amounted to 0.019 µM. Moreover, the concentration for half-maximal inhibition (IC50) in data set [2] amounted to 0.076 µM.

On to `CCOCCOC(=O)NS(=O)(=O)Nc1cc(-c2cc3cc(F)c(F)cc3[nH]2)ccc1OC` [Example 47, Carbamic Acid, [[[5-(5,6-difluoro-IH-indol-2-yl)-2-methoxyphenyl]-amino]sulfonyl]-, 2-ethoxyethyl ester], for which the melting point is 178 to 181 °C. The compound also returned a half-inhibitory concentration (IC50) in data set [1] of 0.044 µM. For the same compound, the IC50 in data set [2] came out at 0.054 µM.

For the compound `CCCCCCOC(=O)NS(=O)(=O)Nc1cc(C(=O)Nc2ccc(F)c(F)c2)ccc1OC` [Example 52, Carbamic Acid, [[[5-[[(3,4-difluorophenyl)amino]carbonyl]-2methoxyphenyl]amino]sulfonyl]-, Hexyl ester], the melting point is 175 to 178 °C. Moreover, the 50% inhibitory concentration (IC50) in data set [1] came to 0.005 µM. The IC50 in data set [2] turned out to be 0.039 µM.

Compound `COc1ccc(-c2cc3cc(F)c(F)cc3[nH]2)cc1NS(=O)(=O)NC(=O)OC/C=C/c1ccccc1` [Example 32, Carbamic Acid, [[[5-(5,6-difluoro-IH-indol-2-yl)-2-methoxyphenyl]amino]sulfonyl]-(2E)-3-phenyl-2-propenyl ester] returned a melting point of 149 to 152 °C. Further, the IC50 in data set [1] is 0.006 µM. The half-inhibitory concentration (IC50) in data set [2] was determined as 0.016 µM.

For `CCCCCCCOC(=O)NS(=O)(=O)Nc1cc(-c2cc3cc(F)c(F)cc3[nH]2)ccc1OC` [Example 30, Carbamic Acid, [[[5-(5,6-difluoro-IH-indo-2-yl)2-methoxyphenyl]amino]-sulfonyl]-heptyl ester], the melting point lay in the range of 178 to 180 °C. In data set [1], this compound showed an IC50 of 0.005 µM. Moreover, the half-inhibitory concentration (IC50) in data set [2] is 0.014 µM.
